Experimental data: paper PMC12655457, “Does CytoSorb Interfere with Immunosuppression? A Pharmacokinetic and Functional Evaluation” (Pharmaceutics, 2025)

Tests used:
[1] = Static CytoSorb adsorption setup (spiked plasma with CytoSorb resin); assay type: in vitro ADME, human; settings: plasma:resin 1:10 v/v, 60 min, 37 °C, n = 3
Experimental: (§1) Plasma was obtained by centrifugation (3500× g, 10 min) from citrate-anticoagulated human whole blood and spiked with immunosuppressants to defined target concentrations (Table 1). To evaluate adsorption, plasma was incubated with the CytoSorb resin at 1:10 (v/v) for 60 min at 37 °C on a roller mixer. In parallel, a separate aliquot of spiked plasma was incubated with autologous blood cells (1:1, v/v) to assess cellular uptake of immunosuppressants. Untreated spiked plasma served as control (Figure 1a). Samples were collected before and after incubation for subsequent analysis.
(§2) MPA was determined using a validated test for the Cobas c311 autoanalyzer from Roche (Basel, Switzerland). 6-MP was quantified by reversed-phase HPLC [17, 18]. After precipitation of the plasma sample with ice cold methanol in ratio 1:5, 30 µL of the supernatant was injected into a Nukleosil 100-5C18, 4.6 × 150 mm C18 column (Macherey-Nagel, Düren, Germany), combined with an Onyx Monolithic C18, 4.6 × 5 mm guard column (Phenomenex, Torrance, CA, USA). The mobile phase consisted of methanol and deionised water (50:50) which was continuously pumped with a flow rate of 0.8 mL/min for five minutes. 6-MP was quantified with a retention time of 2.3 min using an UV detector (325 nm). The quantification of cytokines was determined by Magnetic Luminex Assay with a human premixed Multi Analyte Kit (R&D Systems, Minneapolis, MN, USA). The urea, albumin and total protein levels were measured with the cobas c311 automated analyzer with corresponding test kits from Roche (Penzberg, Germany).

[2] = test system: autologous blood cells; test: Cellular uptake of immunosuppressants by autologous blood cells (static setup); assay type: in vitro ADME, human; settings: spiked plasma with autologous blood cells 1:1 v/v, n = 3
Experimental: as §1
MPA was determined using a validated test for the Cobas c311 autoanalyzer from Roche (Basel, Switzerland). 6-MP was quantified by reversed-phase HPLC [17, 18]. […] 6-MP was quantified with a retention time of 2.3 min using an UV detector (325 nm). The quantification of cytokines was determined by Magnetic Luminex Assay with a human premixed Multi Analyte Kit (R&D Systems, Minneapolis, MN, USA). The urea, albumin and total protein levels were measured with the cobas c311 automated analyzer with corresponding test kits from Roche (Penzberg, Germany).

[3] = Determination of protein binding by ultrafiltration; assay type: in vitro ADME; settings: human plasma, ultrafiltration 30 kDa cutoff; read-out: Protein Binding in Plasma, Current Study (converted)
Experimental: To assess protein binding of the tested immunosuppressants, human plasma was spiked with the respective drugs and urea as a freely diffusible control. Samples were then subjected to ultrafiltration (30 kDa cutoff, 15,000× g, 20 min). The protein-bound fraction was calculated using the following formula:(1) protein binding %= 1−Cfiltrate/Cplasma where cplasma is the concentration of each compound in plasma and cfiltrate is its concentration in the ultrafiltrate.

[4] = Dynamic CytoSorb adsorption setup (scaled-down circuit, whole blood); assay type: in vitro ADME, human; settings: for mean clearance rate: CytoSorb treatment, at 15 min, Equation (2); for adsorption (removal) by CytoSorb: dynamic ex vivo circuit, 400 mL human whole blood, 30 mL cartridge, 4 h
Experimental: To quantify the depletion of selected immunosuppressants during CytoSorb treatment under dynamic conditions, a scaled-down extracorporeal circulation system was established, consisting of a 30 mL CytoSorb adsorption cartridge and a pediatric tubing set filled with 400 mL of freshly drawn human whole blood (Figure 1b). To distinguish between drug removal by adsorption versus uptake by blood components, a control circuit with an identical setup but an empty cartridge was run in parallel for each experiment. Whole blood from two healthy donors of the same blood group was pooled, anticoagulated with citrate (final concentration: 7 mM), spiked with the immunosuppressants, and divided into two 400 mL blood bags.
Prior to circulation, the entire system was flushed with isotonic saline. Then, one of the prepared blood bags (Group 1 or Group 2) was connected to the circuit and circulated for 30 min at 37 °C without the adsorber cartridge to allow for equilibration. Following this equilibration, a baseline sample (0 min) was collected, and the adsorption column was introduced into the circuit. In the adsorption circuit, samples were collected at 15, 30, 60, 120, 180 and 240 min. In the control circuit, samples were taken at baseline and after 240 min. All blood samples were centrifuged (3500× g, 10 min) to separate plasma, which was stored at −80 °C until further analysis.
(§3) The clearance (C) of each compound during both the dialysis and the dynamic CytoSorb experiments was calculated using the first-order exponential decay formula:(2) C = V/t ×lnCo/Ct where V = plasma volume, t = treatment time [min], C0 = concentration before starting treatment, Ct = concentration at time t.
as §2

[5] = Removal of immunosuppressants by chronic dialysis (ex vivo, plasma); assay type: in vitro ADME, human; settings: for clearance: initial values
Experimental: (§4) To evaluate the effect of dialysis under clinically relevant conditions, both chronic and acute dialysis settings were simulated using standard Fresenius systems. In all experiments, 1.5 L of citrated human plasma was dialyzed against calcium-free dialysate at 37 °C.
(§5) Prior to circulation, the systems were flushed with 2 L of isotonic saline. Plasma samples were collected at defined time points (15–480 min) and analyzed for immunosuppressants, urea, and albumin. Chronic dialysis represents intermittent high-flow conditions, whereas acute dialysis mimics continuous low-flow therapy used in critically ill patients.
as §3

[6] = Removal of immunosuppressants by acute dialysis (CVVHD, ex vivo, plasma); assay type: in vitro ADME, human
Experimental: as §4, §5, §3

[7] = Whole blood cell model: immunosuppressant serum levels after CytoSorb treatment; assay type: in vitro ADME, human; settings: overnight incubation, p < 0.05, n = 6
Experimental: To investigate whether the in vitro depletion of immunosuppressants by CytoSorb affects immunosuppression, a whole blood cell model was established. The experiment was conducted over two consecutive days. A graphical overview of the setup is provided in Supplementary Figure S1. On day one, freshly drawn human whole blood was incubated overnight at 37 °C with various immunosuppressants, either individually or in combination, to allow for sufficient drug exposure prior to CytoSorb treatment.
Subsequently, the blood was split into two experimental groups: one was treated with CytoSorb in a batch setup, and the other served as an untreated control, incubated under identical conditions at 37 °C on a roller mixer. Following treatment, all samples were allowed to rest for 4 h. After the resting period, blood samples were stimulated with either lipopolysaccharide (LPS) E. coli or with anti-CD3 antibodies. LPS primarily activates monocytes and neutrophils via the TLR4/CD14/MD2 complex, while anti-CD3 specifically stimulates T cells. The stimulation was carried out for 4 h at 37 °C on a roller mixer. Thereafter, the blood samples were centrifuged, and the plasma was collected and stored at −80 °C. Leukocyte activation was assessed by quantification of IL-1β, IL-6, IL-8, and TNF-α.
as §2

[8] = test system: human whole blood; test: Whole blood cell model: LPS stimulation, cytokine measurement; assay type: cell-based; settings: + CytoSorb
Experimental: (§6) Subsequently, the blood was split into two experimental groups: one was treated with CytoSorb in a batch setup, and the other served as an untreated control, incubated under identical conditions at 37 °C on a roller mixer. Following treatment, all samples were allowed to rest for 4 h. After the resting period, blood samples were stimulated with either lipopolysaccharide (LPS) E. coli or with anti-CD3 antibodies. […] The stimulation was carried out for 4 h at 37 °C on a roller mixer. Thereafter, the blood samples were centrifuged, and the plasma was collected and stored at −80 °C. Leukocyte activation was assessed by quantification of IL-1β, IL-6, IL-8, and TNF-α.

[9] = test system: human whole blood; test: Whole blood cell model: anti-CD3 stimulation, cytokine measurement; assay type: cell-based; settings: + Anti-CD3, + CytoSorb
Experimental: as §6

[10] = set-up: method as in earlier work; settings: literature; ref 23 (methylprednisolone), 24 (mycophenolate), 41 (6-mercaptopurine); cited from earlier work
[11] = literature; ref 21 (6-MP), 22 (CsA), 23 (MPR), 24 (MPA), 25 (TAC); cited from earlier work

| reduction of level in plasma by CytoSorb [1] | fraction unbound [3] | mean clearance rate [4] | adsorption (removal) by CytoSorb [4] | removal by dialysis (in words) [5] | clearance [5] | removal by dialysis (in words) [6] | clearance ([6]; after 8 h) | clearance ([6]; highest value reached) | reduction in serum level following CytoSorb treatment (in words) [7] | SMILES | IL-1β serum level ([8]; test 1) | IL-6 serum level ([8]; test 1) | IL-8 serum level ([8]; test 1) | TNF-α serum level ([8]; test 1) | IL-1β serum level ([8]; test 2) | IL-6 serum level ([8]; test 2) | IL-8 serum level ([8]; test 2) | TNF-α serum level ([8]; test 2) | IL-1β serum level ([8]; test 3) | IL-6 serum level ([8]; test 3) | further results |
| --- | --- | --- | --- | --- | --- | --- | --- | --- | --- | --- | --- | --- | --- | --- | --- | --- | --- | --- | --- | --- | --- |
| 33 ± 11% | 0.662 | ~31 mL/min | 47 ± 16% | efficiently removed | ~ 190 mL/min | efficiently removed | below 10 mL/min | up to 30 mL/min | significant reduction | Sc1ncnc2nc[nH]c12 [6-MP, 6-mercaptopurine] | 354 pg/mL | 3786 pg/mL | 6337 pg/mL | 2920 pg/mL | 44 pg/mL | 730 pg/mL | 2253 pg/mL | 1762 pg/mL | 190 pg/mL | 3799 pg/mL | absorbed / reduced by blood cells [2]: 36 ± 6%; IL-8 serum level ([8]; test 3): 7104 pg/mL; TNF-α serum level ([8]; test 3): 1250 pg/mL; IL-1β serum level ([9]; test 1): 0 pg/mL; IL-6 serum level ([9]; test 1): 3 pg/mL; IL-8 serum level ([9]; test 1): 205 pg/mL; TNF-α serum level ([9]; test 1): 12 pg/mL; IL-1β serum level ([9]; test 2): 75 pg/mL; IL-6 serum level ([9]; test 2): 381 pg/mL; IL-8 serum level ([9]; test 2): 4175 pg/mL; TNF-α serum level ([9]; test 2): 46 pg/mL; IL-1β serum level ([9]; test 3): 70 pg/mL; IL-6 serum level ([9]; test 3): 30 pg/mL; IL-8 serum level ([9]; test 3): 686 pg/mL; TNF-α serum level ([9]; test 3): 41 pg/mL; volume of distribution (Vd) [10]: ≈ 0.9 L/kg; Protein Binding in Plasma, Reference [11]: 39 [21] % |
| 91 ± 2% | 0.066 | ~49 mL/min | 92 ± 3% | high removal | ~ 75 mL/min | moderate removal | below 10 mL/min | ≤ 28 mL/min | significant reduction | C[C@H]1C[C@@H]2[C@H]([C@@H](O)C[C@@]3(C)[C@H]2CC[C@]3(O)C(=O)CO)[C@@]2(C)C=CC(=O)C=C12 [MPR, methylprednisolone] | 354 pg/mL | 3786 pg/mL | 6337 pg/mL | 2920 pg/mL | 26 pg/mL | 73 pg/mL | 1630 pg/mL | 416 pg/mL | 190 pg/mL | 3799 pg/mL | reduction of serum levels by CytoSorb (abstract) ([4]; as stated in the abstract, experiment not specified): 92 ± 3%; IL-8 serum level ([8]; test 3): 7104 pg/mL; TNF-α serum level ([8]; test 3): 1250 pg/mL; IL-1β serum level ([9]; test 1): 0 pg/mL; IL-6 serum level ([9]; test 1): 1 pg/mL; IL-8 serum level ([9]; test 1): 171 pg/mL; TNF-α serum level ([9]; test 1): 43 pg/mL; IL-1β serum level ([9]; test 2): 44 pg/mL; IL-6 serum level ([9]; test 2): 16 pg/mL; IL-8 serum level ([9]; test 2): 242 pg/mL; TNF-α serum level ([9]; test 2): 57 pg/mL; IL-1β serum level ([9]; test 3): 70 pg/mL; IL-6 serum level ([9]; test 3): 30 pg/mL; IL-8 serum level ([9]; test 3): 686 pg/mL; TNF-α serum level ([9]; test 3): 41 pg/mL; volume of distribution (Vd) [10]: ≈ 1.4 L/kg; Protein Binding in Plasma, Reference [11]: 77 [23] % |
